# Test results reported in article PMC12048343, “Discovery of a small molecule secreted clusterin enhancer that improves memory in Alzheimer’s disease mice” (npj Drug Discovery, 2025).
# Tests used:
# sCLU in SH-SY5Y cells = experiment: sCLU levels in SH-SY5Y cells; assay type: cell-based, human; details: SH-SY5Y cells (Fig. S9A)
# Protocol: Cell culture supernatant (2 μL) was added to a 384-well proxy plate preloaded with AlphaLISA HiBlock buffer (2 µL, 1X, CAT#AL004C, Perkin Elmer). Then an anti-sCLU antibody mixture (2 µL, mAb J84, biotinylated (10 nM, Cat# 3717-6-1000, Mabtech) and mAb CLU aa 22-227 (Cat#AF7084, R&D Systems), Acceptor bead conjugated (50 µg/mL, Cat#6772001, Perkin Elmer)) was added and incubated at room temperature for 1 hour. AlphaScreen Streptavidin Donor beads (2 µL, Cat#6760002S, Perkin Elmer) were added, incubated for an additional 30 min in the dark, and the plate was read in an Envision plate reader.
# [1] = tested on: sirtuin 1 (SirT1) expression in SH-SY5Y cells; experiment: SirT1 AlphaLISA in SH-SY5Y cell lysate; assay type: cell-based, human; details: 200 nM, 24 h
# Protocol: Additional assays: The Aβ1-42 ELISA assay was performed on hippocampus brain homogenate according to the manufacturer’s protocol (Fisher KHB3441). Humanin in cell culture lysate was quantify by ELISA assay, according to the manufacturer’s protocol (MyBioSourc Cat# MBS7607247). SirT1 in cell culture lysate was quantify using AlphaLISA. Cell lysate (2 μL) was added to a 384-well proxy plate preloaded with 2 µL anti-SiRT1 antibody mixture (ABCAM catalog AB110304, biotinylated (10 nM) and ABCAM catalog AB104833, acceptor bead conjugated (50 µg/mL, Cat#6772001, Perkin Elmer)) was added and incubated at room temperature for 1 hour. AlphaScreen Streptavidin Donor beads (2 µL, Cat#6760002S, Perkin Elmer) were added, incubated for an additional 30 min in the dark, and the plate was read in an Envision plate reader.
# 3xTg-AD mice = experiment: Barnes maze assessment of spatial learning and memory; assay type: in vivo, mouse; details: oral 15 mg/kg BID, 6 weeks; significant on Day 3 of training and in the 48-hour probe
# Protocol: Male and female 3-month-old mice were administered DDL-357 via pipette feeding at a dose of 15 mg/kg BID (30 mg/kg/day). Mice were weighed before the first dose for the calculation of volume to be administered. The formulation used comprised DDL-357 as a 15 mg/mL solution dissolved in a strawberry flavored solution (propylene glycol/water/strawberry syrup, 2/1/1, v/v/v). ApoE4TR-5XFAD mice (7 mice, 3 females & 4 males-vehicle; 7 mice, 4females and 3 males – DDL357) were dosed for two weeks. 3xTg-AD mice (13 mice, 5 females & 8 males-vehicle; 13 mice, 4 females and 9 males- DDL357) were dosed for six weeks before entering Barnes Maze testing. At end of study, mice brain tissue and plasma were collected after euthanasia and perfusion. […]
# Barnes Maze testing was performed as describe by Attar et al. Briefly, in a room with visual cues on the walls, mice are introduced in a circular maze containing 20 holes where 19 holes are closed during training and all 20 holes are closed during the probe trials. […] During the probe days, the target hole is closed, and spatial memory of the mouse is determined during a 90 s probe trial. […] Over the course of the training and probe trials, the software-calculated parameters included, but were not limited to, total distance traveled, speed, number of holes visited, latency to visiting the target/escape hole, percent time spent in the four quadrants of the maze.
smiles,measurement,setting,value
Cc1sc2c(c1C)C(c1ccc(Cl)cc1)=N[C@@H](CC(=O)OC1CC1)c1nnc(C)n1-2 [DDL-357],sCLU levels,sCLU in SH-SY5Y cells,increasing sCLU
same,sirtuin 1 (SirT1) expression,[1],significantly increased expression
same,Barnes maze performance (latency to escape hole),3xTg-AD mice,performed better overall during both the training and probe phases
